Measurements from PubChem BioAssay AID250 (DTP/NCI, 2004).
Where “and” joins values, the source holds several entries; their conditions need not be identical. Equal values may be shown once. Toxic doses and inconclusive results are not listed.

Test system: BDF1 mice, L1210 leukemia sc, survival T/C
Assay: NCI In Vivo Anticancer Drug Screen. Data for tumor model L1210 Leukemia (subcutaneous) in B6D2F1 (BDF1) mice
Settings: higher = longer survival
Outline: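 Tumors were transplanted into mice, the animals were treated with compound, survival or tumor size was then measured, and treated values were divided by vehicle-control values.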

CN(Cc1cnc2nc(N)nc(N)c2n1)c1ccc(C(=O)N[C@@H](CCC(=O)O)C(=O)O)cc1
T/C (endpoint: mean survival time, dose: 0.65 mg/kg/injection, schedule: Q01DX009 (sc), vehicle: other): 166 % of control and 168 % of control | T/C (endpoint: mean survival time, dose: 1.0 mg/kg/injection, schedule: Q01DX015 (ip), vehicle: other): 158 % of control and 163 % of control and 171 % of control | T/C (endpoint: mean survival time, dose: 1.08 mg/kg/injection, schedule: Q01DX009 (sc), vehicle: other): 158 % of control | T/C (endpoint: mean survival time, dose: 1.8 mg/kg/injection, schedule: Q01DX009 (sc), vehicle: other): 171 % of control | T/C (endpoint: mean survival time, dose: 2.0 mg/kg/injection, schedule: Q01DX009 (ip), vehicle: sodium bicarbonate): 154 % of control and 166 % of control | T/C (endpoint: mean survival time, dose: 4.0 mg/kg/injection, schedule: Q01DX009 (ip), vehicle: sodium bicarbonate): 88 % of control | T/C (endpoint: mean survival time, dose: 20.0 mg/kg/injection, schedule: Q04DX003 (ip), vehicle: sodium bicarbonate): 158 % of control | T/C (endpoint: mean survival time, dose: 45.0 mg/kg/injection, schedule: Q04DX004 (ip), vehicle: other): 99 % of control and 101 % of control | T/C (endpoint: mean survival time, dose: 60.0 mg/kg/injection, schedule: Q04DX004 (ip), vehicle: other): 90 % of control and 105 % of control and 124 % of control | T/C (endpoint: mean survival time, dose: 80.0 mg/kg/injection, schedule: Q04DX003 (ip), vehicle: sodium bicarbonate): 91 % of control | T/C (endpoint: mean survival time, dose: 200.0 mg/kg/injection, schedule: Q01DX001 (ip), vehicle: other): 91 % of control and 111 % of control and 116 % of control | T/C (endpoint: median survival time, dose: 0.01 mg/kg/injection, schedule: Q## X Z (sc), vehicle: other): 100 % of control | T/C (endpoint: median survival time, dose: 0.02 mg/kg/injection, schedule: Q## X Z (sc), vehicle: other): 100 % of control | T/C (endpoint: median survival time, dose: 0.03 mg/kg/injection, schedule: Q## X Z (sc), vehicle: other): 105 % of control | T/C (endpoint: median survival time, dose: 0.05 mg/kg/injection, schedule: Q#A X Z (sc), vehicle: other): 105 % of control | T/C (endpoint: median survival time, dose: 0.14 mg/kg/injection, schedule: Q#A X Z (sc), vehicle: other): 122 % of control | T/C (endpoint: median survival time, dose: 0.17 mg/kg/injection, schedule: Q01DX Z (iv), vehicle: other): 112 % of control | T/C (endpoint: median survival time, dose: 0.23 mg/kg/injection, schedule: Q01DX Z (ip), vehicle: other): 100 % of control | T/C (endpoint: median survival time, dose: 0.23 mg/kg/injection, schedule: Q01DX Z (sc), vehicle: sodium bicarbonate): 109 % of control | T/C (endpoint: median survival time, dose: 0.24 mg/kg/injection, schedule: Q01DX Z (sc), vehicle: other): 104 % of control and 108 % of control | T/C (endpoint: median survival time, dose: 0.3 mg/kg/injection, schedule: Q01DX Z (sc), vehicle: other): 112 % of control | T/C (endpoint: median survival time, dose: 0.39 mg/kg/injection, schedule: Q01DX006 (sc), vehicle: other): 110 % of control | T/C (endpoint: median survival time, dose: 0.39 mg/kg/injection, schedule: Q01DX008 (sc), vehicle: other): 110 % of control | T/C (endpoint: median survival time, dose: 0.39 mg/kg/injection, schedule: Q01DX009 (sc), vehicle: other): 122 % of control | T/C (endpoint: median survival time, dose: 0.39 mg/kg/injection, schedule: Q01DX Z (ip), vehicle: other): 105 % of control | T/C (endpoint: median survival time, dose: 0.47 mg/kg/injection, schedule: Q01DX Z (iv), vehicle: other): 112 % of control | T/C (endpoint: median survival time, dose: 0.47 mg/kg/injection, schedule: Q01DX Z (oral), vehicle: other): 112 % of control | T/C (endpoint: median survival time, dose: 0.65 mg/kg/injection, schedule: Q01DX008 (sc), vehicle: other): 155 % of control and 166 % of control | T/C (endpoint: median survival time, dose: 0.65 mg/kg/injection, schedule: Q01DX009 (sc), vehicle: other): 169 % of control | T/C (endpoint: median survival time, dose: 0.65 mg/kg/injection, schedule: Q01DX017 (sc), vehicle: sodium bicarbonate): 166 % of control | T/C (endpoint: median survival time, dose: 0.65 mg/kg/injection, schedule: Q01DX Z (oral), vehicle: other): 90 % of control | T/C (endpoint: median survival time, dose: 0.65 mg/kg/injection, schedule: Q02DX009 (sc), vehicle: other): 111 % of control | T/C (endpoint: median survival time, dose: 0.65 mg/kg/injection, schedule: Q02DX Z (sc), vehicle: other): 111 % of control | T/C (endpoint: median survival time, dose: 1.08 mg/kg/injection, schedule: Q01DX006 (sc), vehicle: other): 150 % of control | T/C (endpoint: median survival time, dose: 1.08 mg/kg/injection, schedule: Q01DX008 (sc), vehicle: other): 160 % of control and 166 % of control | T/C (endpoint: median survival time, dose: 1.08 mg/kg/injection, schedule: Q01DX009 (ip), vehicle: sodium bicarbonate): 156 % of control and 166 % of control and 168 % of control | T/C (endpoint: median survival time, dose: 1.08 mg/kg/injection, schedule: Q01DX017 (sc), vehicle: sodium bicarbonate): 158 % of control | T/C (endpoint: median survival time, dose: 1.08 mg/kg/injection, schedule: Q01DX Z (ip), vehicle: other): 160 % of control | T/C (endpoint: median survival time, dose: 1.08 mg/kg/injection, schedule: Q01DX Z (oral), vehicle: other): 110 % of control | T/C (endpoint: median survival time, dose: 1.08 mg/kg/injection, schedule: Q02DX009 (sc), vehicle: other): 119 % of control | T/C (endpoint: median survival time, dose: 1.08 mg/kg/injection, schedule: Q02DX Z (sc), vehicle: other): 122 % of control | T/C (endpoint: median survival time, dose: 1.08 mg/kg/injection, schedule: Q#A X Z (sc), vehicle: other): 166 % of control | T/C (endpoint: median survival time, dose: 1.5 mg/kg/injection, schedule: Q01DX009 (ip), vehicle: sodium bicarbonate): 155 % of control and 167 % of control | T/C (endpoint: median survival time, dose: 1.8 mg/kg/injection, schedule: Q01DX006 (sc), vehicle: other): 155 % of control | T/C (endpoint: median survival time, dose: 1.8 mg/kg/injection, schedule: Q01DX008 (sc), vehicle: other): 160 % of control | T/C (endpoint: median survival time, dose: 1.8 mg/kg/injection, schedule: Q01DX009 (ip), vehicle: sodium bicarbonate): 166 % of control and 171 % of control | T/C (endpoint: median survival time, dose: 2.89 mg/kg/injection, schedule: Q01DX Z (ip), vehicle: other): 155 % of control | T/C (endpoint: median survival time, dose: 3.0 mg/kg/injection, schedule: Q01DX006 (sc), vehicle: other): 160 % of control and 166 % of control | T/C (endpoint: median survival time, dose: 3.0 mg/kg/injection, schedule: Q01DX008 (sc), vehicle: other): 160 % of control | T/C (endpoint: median survival time, dose: 3.0 mg/kg/injection, schedule: Q01DX010 (sc), vehicle: other): 161 % of control | T/C (endpoint: median survival time, dose: 3.0 mg/kg/injection, schedule: Q01DX012 (ip), vehicle: sodium bicarbonate): 122 % of control | T/C (endpoint: median survival time, dose: 3.0 mg/kg/injection, schedule: Q01DX Z (oral), vehicle: other): 160 % of control | T/C (endpoint: median survival time, dose: 3.0 mg/kg/injection, schedule: Q02DX009 (sc), vehicle: other): 164 % of control | T/C (endpoint: median survival time, dose: 3.0 mg/kg/injection, schedule: Q02DX Z (sc), vehicle: other): 166 % of control | T/C (endpoint: median survival time, dose: 3.02 mg/kg/injection, schedule: Q01DX Z (sc), vehicle: other): 166 % of control | T/C (endpoint: median survival time, dose: 3.64 mg/kg/injection, schedule: Q01DX Z (sc), vehicle: other): 166 % of control | T/C (endpoint: median survival time, dose: 3.9 mg/kg/injection, schedule: Q01DX Z (sc), vehicle: other): 150 % of control | T/C (endpoint: median survival time, dose: 4.0 mg/kg/injection, schedule: Q01DX Z (sc), vehicle: water): 155 % of control | T/C (endpoint: median survival time, dose: 4.7 mg/kg/injection, schedule: Q01DX Z (sc), vehicle: other): 166 % of control | T/C (endpoint: median survival time, dose: 5.0 mg/kg/injection, schedule: Q01DX009 (ip), vehicle: sodium bicarbonate): 166 % of control and 171 % of control | T/C (endpoint: median survival time, dose: 5.0 mg/kg/injection, schedule: Q01DX025 (sc), vehicle: other): 168 % of control | T/C (endpoint: median survival time, dose: 5.0 mg/kg/injection, schedule: Q01DX Z (sc), vehicle: sodium bicarbonate): 100 % of control | T/C (endpoint: median survival time, dose: 6.0 mg/kg/injection, schedule: Q01DX009 (ip), vehicle: sodium bicarbonate): 119 % of control | T/C (endpoint: median survival time, dose: 6.0 mg/kg/injection, schedule: Q01DX Z (oral), vehicle: other): 156 % of control | T/C (endpoint: median survival time, dose: 14.0 mg/kg/injection, schedule: Q## X Z (sc), vehicle: other): 109 % of control and 113 % of control | T/C (endpoint: median survival time, dose: 62.5 mg/kg/injection, schedule: Q01DX001 (sc), vehicle: other): 111 % of control | T/C (endpoint: median survival time, dose: 65.0 mg/kg/injection, schedule: Q04DX005 (sc), vehicle: sodium bicarbonate): 108 % of control | T/C (endpoint: median survival time, dose: 65.0 mg/kg/injection, schedule: Q## X Z (sc), vehicle: other): 152 % of control | T/C (endpoint: median survival time, dose: 100.0 mg/kg/injection, schedule: Q01DX001 (sc), vehicle: sodium bicarbonate): 150 % of control | T/C (endpoint: median survival time, dose: 108.0 mg/kg/injection, schedule: Q## X Z (sc), vehicle: other): 117 % of control | T/C (endpoint: median survival time, dose: 125.0 mg/kg/injection, schedule: Q01DX001 (sc), vehicle: other): 116 % of control
